Measurements reported in PMC4503431, “Impaired Itching Perception in Murine Models of Cholestasis Is Supported by Dysregulation of GPBAR1 Signaling” (PLoS ONE, 2015).

Experiments:
GPBAR1 (TGR5) = target: T1, GPBAR1 (TGR5) (Homo sapiens, UniProt Q8TDU6); test: CRE-luciferase transactivation in HEK293T cells transfected with human GPBAR1; assay type: cell-based
T1 construct: pCMVSPORT6-human GPBAR1
T1 sequence (Q8TDU6 1-330): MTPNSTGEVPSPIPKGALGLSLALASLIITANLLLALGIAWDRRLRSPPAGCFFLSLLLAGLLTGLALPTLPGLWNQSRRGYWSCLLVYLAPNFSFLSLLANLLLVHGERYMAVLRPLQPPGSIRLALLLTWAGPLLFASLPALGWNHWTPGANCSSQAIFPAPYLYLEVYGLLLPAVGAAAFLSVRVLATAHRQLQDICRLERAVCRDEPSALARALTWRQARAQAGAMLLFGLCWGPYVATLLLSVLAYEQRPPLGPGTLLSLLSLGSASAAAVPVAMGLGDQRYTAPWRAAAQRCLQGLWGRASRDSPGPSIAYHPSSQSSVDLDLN

[1] = target: T2, farnesoid X receptor (FXR) (Homo sapiens, UniProt Q96RI1); test: FXRE (hsp27 IR1) luciferase transactivation in HepG2 cells transfected with FXR and RXR; assay type: cell-based
T2 construct: gene NR1H4; pSG5-FXR; with RXR (pSG5-RXR cotransfected)
T2 sequence (Q96RI1 1-486): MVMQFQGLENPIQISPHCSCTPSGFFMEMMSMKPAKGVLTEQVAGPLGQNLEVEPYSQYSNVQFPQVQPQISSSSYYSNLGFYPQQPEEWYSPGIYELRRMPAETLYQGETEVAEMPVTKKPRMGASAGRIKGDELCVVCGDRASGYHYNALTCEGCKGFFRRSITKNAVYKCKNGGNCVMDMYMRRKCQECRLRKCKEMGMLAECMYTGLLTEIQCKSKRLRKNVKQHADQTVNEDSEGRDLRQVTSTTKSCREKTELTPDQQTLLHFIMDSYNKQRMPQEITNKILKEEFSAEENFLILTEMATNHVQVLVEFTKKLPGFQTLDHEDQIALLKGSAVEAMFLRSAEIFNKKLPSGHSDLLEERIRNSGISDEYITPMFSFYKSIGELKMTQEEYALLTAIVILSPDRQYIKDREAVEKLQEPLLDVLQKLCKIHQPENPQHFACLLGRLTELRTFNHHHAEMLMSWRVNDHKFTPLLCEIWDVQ
T2 sequence (P19793 1-462 partner): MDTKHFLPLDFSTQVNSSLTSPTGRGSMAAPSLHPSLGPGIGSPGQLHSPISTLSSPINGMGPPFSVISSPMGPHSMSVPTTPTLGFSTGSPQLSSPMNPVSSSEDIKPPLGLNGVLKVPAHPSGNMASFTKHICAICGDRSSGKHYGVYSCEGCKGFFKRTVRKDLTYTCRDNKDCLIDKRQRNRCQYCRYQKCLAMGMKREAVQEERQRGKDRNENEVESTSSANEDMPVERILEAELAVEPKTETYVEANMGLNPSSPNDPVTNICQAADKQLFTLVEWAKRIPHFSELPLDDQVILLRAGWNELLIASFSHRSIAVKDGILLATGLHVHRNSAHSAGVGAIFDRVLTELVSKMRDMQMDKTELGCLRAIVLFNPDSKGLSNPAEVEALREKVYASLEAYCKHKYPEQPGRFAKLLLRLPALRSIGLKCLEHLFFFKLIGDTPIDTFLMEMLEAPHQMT

CC[C@H]1[C@@H](O)[C@@H]2[C@H](CC[C@]3(C)[C@@H]([C@H](C)CCO)CC[C@@H]23)[C@@]2(C)CC[C@@H](O)C[C@@H]12 [BAR502, 6α-ethyl-3α, 7α-dihydroxy-24-nor-5β-cholan-23-ol]
EC50 (GPBAR1 (TGR5)): 400 ± 100 nM
EC50 [1]: 2000 ± 200 nM
